{"source": "patent US8372854B2", "about": "“Pyrrolo[2,3-D]pyrimidine compounds” (Pfizer Inc., priority 2009, dated 2013)", "format_in_all_cases": "biochemical", "key": {"JAK1": {"target": "T1, JAK1 (Homo sapiens, UniProt P23458)", "T1 construct": "purchased Invitrogen Corporation, Madison, Wis; PV4775", "T1 sequence (P23458 whole entry)": "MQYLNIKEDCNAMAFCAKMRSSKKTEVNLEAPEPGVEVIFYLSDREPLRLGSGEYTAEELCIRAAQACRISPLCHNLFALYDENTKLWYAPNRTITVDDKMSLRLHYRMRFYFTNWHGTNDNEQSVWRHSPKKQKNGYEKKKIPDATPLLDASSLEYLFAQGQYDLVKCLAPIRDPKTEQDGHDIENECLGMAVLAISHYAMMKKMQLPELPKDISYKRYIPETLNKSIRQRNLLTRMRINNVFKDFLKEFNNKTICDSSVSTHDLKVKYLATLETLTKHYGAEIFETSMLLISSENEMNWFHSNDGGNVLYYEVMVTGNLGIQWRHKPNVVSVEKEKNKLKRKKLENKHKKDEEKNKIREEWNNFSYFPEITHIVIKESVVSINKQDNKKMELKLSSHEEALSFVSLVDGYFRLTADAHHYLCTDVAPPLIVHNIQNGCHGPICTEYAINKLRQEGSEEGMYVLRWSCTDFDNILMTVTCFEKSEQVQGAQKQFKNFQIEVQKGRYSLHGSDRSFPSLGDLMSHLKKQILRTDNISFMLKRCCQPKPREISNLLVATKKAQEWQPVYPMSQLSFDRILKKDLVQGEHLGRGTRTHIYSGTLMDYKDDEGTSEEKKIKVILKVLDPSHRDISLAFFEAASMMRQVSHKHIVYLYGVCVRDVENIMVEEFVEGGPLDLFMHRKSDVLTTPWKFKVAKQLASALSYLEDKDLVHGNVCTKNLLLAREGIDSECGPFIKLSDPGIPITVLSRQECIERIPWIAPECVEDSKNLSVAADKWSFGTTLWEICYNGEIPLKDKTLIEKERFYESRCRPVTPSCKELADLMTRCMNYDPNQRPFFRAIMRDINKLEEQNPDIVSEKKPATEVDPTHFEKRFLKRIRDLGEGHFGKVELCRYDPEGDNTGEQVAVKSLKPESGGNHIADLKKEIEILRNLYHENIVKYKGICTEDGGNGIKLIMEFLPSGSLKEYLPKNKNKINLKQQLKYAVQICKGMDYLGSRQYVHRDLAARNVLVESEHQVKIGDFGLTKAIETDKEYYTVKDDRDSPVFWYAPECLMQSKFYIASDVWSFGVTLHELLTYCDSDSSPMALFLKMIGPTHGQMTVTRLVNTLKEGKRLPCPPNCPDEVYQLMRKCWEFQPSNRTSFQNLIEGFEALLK", "experiment": "JAK enzymatic assay (peptide mobility shift), JAK1", "conditions": "recombinant JAK1 20 nM, ATP 40 μM, 1 μM IRS-1 peptide, 240 minutes", "how_it_was_run": "(§1)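 Caliper mobility-shift assay of peptide phosphorylation (1 μM peptide) in pH 7.4 HEPES with MgCl2, BSA, Tween-20 and 2% DMSO. JAK1 used 20 nM enzyme, 40 μM ATP, IRS-1 peptide, 240 min; JAK2 used 2 nM, 4 μM ATP, JAKtide, 150 min; JAK3 used 1 nM, 4 μM ATP, JAKtide, 90 min. IC50s came from 11-point 4-parameter fits.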"}, "JAK2": {"target": "T2, JAK2 (Homo sapiens, UniProt O60674)", "T2 construct": "purchased Invitrogen Corporation, Madison, Wis; PV4210", "T2 sequence (O60674 whole entry)": "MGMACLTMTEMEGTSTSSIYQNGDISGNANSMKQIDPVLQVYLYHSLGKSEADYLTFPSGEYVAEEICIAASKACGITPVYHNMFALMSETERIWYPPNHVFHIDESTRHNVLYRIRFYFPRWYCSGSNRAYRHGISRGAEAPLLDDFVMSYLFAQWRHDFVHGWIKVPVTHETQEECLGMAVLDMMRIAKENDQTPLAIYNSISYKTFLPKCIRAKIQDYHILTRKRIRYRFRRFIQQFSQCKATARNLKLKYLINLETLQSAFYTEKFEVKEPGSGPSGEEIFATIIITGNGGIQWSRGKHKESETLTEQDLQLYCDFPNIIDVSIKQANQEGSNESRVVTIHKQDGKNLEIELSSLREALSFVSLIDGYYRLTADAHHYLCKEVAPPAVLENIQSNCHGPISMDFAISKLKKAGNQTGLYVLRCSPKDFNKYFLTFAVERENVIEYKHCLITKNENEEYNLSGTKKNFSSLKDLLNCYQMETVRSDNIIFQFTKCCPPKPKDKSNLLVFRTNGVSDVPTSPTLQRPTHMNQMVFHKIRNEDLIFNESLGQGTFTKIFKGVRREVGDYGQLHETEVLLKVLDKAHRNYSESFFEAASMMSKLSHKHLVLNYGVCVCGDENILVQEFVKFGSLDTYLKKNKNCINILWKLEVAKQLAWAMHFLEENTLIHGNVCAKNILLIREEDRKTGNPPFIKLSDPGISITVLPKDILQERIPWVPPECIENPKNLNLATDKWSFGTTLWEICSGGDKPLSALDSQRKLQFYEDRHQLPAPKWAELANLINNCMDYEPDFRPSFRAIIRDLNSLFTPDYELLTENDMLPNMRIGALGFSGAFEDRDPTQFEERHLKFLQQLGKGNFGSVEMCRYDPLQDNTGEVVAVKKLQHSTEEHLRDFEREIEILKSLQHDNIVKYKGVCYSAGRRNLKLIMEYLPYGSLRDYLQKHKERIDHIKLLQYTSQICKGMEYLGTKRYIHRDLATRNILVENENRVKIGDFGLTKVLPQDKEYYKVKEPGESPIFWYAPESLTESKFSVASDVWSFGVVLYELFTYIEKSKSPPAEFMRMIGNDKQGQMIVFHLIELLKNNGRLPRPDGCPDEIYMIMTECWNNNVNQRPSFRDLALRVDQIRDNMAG", "experiment": "JAK enzymatic assay (peptide mobility shift), JAK2", "conditions": "recombinant JAK2 2 nM, ATP 4 μM, 1 μM JAKtide peptide, 150 minutes", "how_it_was_run": "as §1"}, "JAK3": {"target": "T3, JAK3 (Homo sapiens, UniProt P52333)", "T3 construct": "purchased Invitrogen Corporation, Madison, Wis; PV3855", "T3 sequence (P52333 1-1124)": "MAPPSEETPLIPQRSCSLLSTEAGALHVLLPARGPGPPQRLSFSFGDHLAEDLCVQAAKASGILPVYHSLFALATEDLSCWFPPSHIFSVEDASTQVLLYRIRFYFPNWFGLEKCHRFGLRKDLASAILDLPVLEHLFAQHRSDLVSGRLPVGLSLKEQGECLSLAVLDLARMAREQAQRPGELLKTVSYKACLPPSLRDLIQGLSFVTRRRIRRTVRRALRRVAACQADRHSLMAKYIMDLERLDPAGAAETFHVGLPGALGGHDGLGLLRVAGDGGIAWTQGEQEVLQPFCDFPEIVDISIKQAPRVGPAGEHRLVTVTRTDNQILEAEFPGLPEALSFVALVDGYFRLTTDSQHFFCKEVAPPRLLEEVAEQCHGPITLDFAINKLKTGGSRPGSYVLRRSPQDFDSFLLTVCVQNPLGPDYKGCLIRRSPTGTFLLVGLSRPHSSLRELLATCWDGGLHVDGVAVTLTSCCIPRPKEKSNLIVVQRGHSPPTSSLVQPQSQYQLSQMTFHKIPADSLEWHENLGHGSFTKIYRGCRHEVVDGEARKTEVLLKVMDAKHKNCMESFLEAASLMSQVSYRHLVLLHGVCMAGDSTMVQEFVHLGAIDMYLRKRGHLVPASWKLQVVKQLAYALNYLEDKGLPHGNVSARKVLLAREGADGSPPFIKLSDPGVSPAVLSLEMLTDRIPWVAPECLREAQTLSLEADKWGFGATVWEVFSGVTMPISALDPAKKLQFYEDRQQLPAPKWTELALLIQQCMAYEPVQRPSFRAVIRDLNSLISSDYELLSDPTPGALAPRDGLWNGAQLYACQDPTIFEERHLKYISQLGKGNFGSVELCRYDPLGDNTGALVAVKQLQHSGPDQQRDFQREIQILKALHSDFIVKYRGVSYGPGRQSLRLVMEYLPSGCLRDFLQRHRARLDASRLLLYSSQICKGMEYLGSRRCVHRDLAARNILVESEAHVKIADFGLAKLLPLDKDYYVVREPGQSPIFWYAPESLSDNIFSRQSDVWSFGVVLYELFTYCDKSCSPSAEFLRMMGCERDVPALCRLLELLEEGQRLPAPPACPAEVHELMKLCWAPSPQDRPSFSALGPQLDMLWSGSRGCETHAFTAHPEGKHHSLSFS", "experiment": "JAK enzymatic assay (peptide mobility shift), JAK3", "conditions": "recombinant JAK3 1 nM, ATP 4 μM, 1 μM JAKtide peptide, 90 minutes"}}}
{"smiles": "CN(c1ncnc2[nH]ccc12)[C@H]1CC[C@H](CS(=O)(=O)NCCC(F)=C(F)F)CC1", "note": "[Example 48, 1-{trans-4-[methyl(7H-pyrrolo[2,3-d]pyrimidin-4-yl)amino]cyclohexyl}-N-(3,4,4-trifluorobut-3-en-1-yl)methanesulfonamide]", "values": [{"measurement": "IC50", "setting": "JAK1", "result": 19.6, "unit": "nM"}, {"measurement": "IC50", "setting": "JAK2", "result": 66, "unit": "nM"}, {"measurement": "IC50", "setting": "JAK3", "result": 267, "unit": "nM"}]}
{"smiles": "C[C@H](O)CNS(=O)(=O)C[C@H]1CC[C@H](N(C)c2ncnc3[nH]ccc23)CC1", "note": "[Example 49, N-[(2S)-2-hydroxypropyl]-1-{trans-4-[methyl(7H-pyrrolo[2,3-d]pyrimidin-4-yl)amino]cyclohexyl}-methanesulfonamide]", "values": [{"measurement": "IC50", "setting": "JAK1", "result": 21.4, "unit": "nM"}, {"measurement": "IC50", "setting": "JAK2", "result": 64.2, "unit": "nM"}, {"measurement": "IC50", "setting": "JAK3", "result": 526, "unit": "nM"}]}
{"smiles": "Cc1cccc(CCNS(=O)(=O)C[C@H]2CC[C@H](N(C)c3ncnc4[nH]ccc34)CC2)n1", "note": "[Example 50, N-[2-(6-methylpyridin-2-yl)ethyl]-1-{trans-4-[methyl(7H-pyrrolo[2,3-d]-pyrimidin-4-yl)amino]-cyclohexyl}-methanesulfonamide]", "values": [{"measurement": "IC50", "setting": "JAK1", "result": 21.6, "unit": "nM"}, {"measurement": "IC50", "setting": "JAK2", "result": 80.6, "unit": "nM"}, {"measurement": "IC50", "setting": "JAK3", "result": 633, "unit": "nM"}]}
{"smiles": "Cc1cc(C)nc(CNS(=O)(=O)C[C@H]2CC[C@H](N(C)c3ncnc4[nH]ccc34)CC2)n1", "note": "[Example 51, N-[(4,6-dimethylpyrimidin-2-yl)methyl]-1-{trans-4-[methyl(7H-pyrrolo[2,3-d]-pyrimidin-4-yl)amino]cyclohexyl}-methanesulfonamide]", "values": [{"measurement": "IC50", "setting": "JAK1", "result": 23.3, "unit": "nM"}, {"measurement": "IC50", "setting": "JAK2", "result": 20.2, "unit": "nM"}, {"measurement": "IC50", "setting": "JAK3", "result": 237, "unit": "nM"}]}
{"smiles": "Cc1nn(C)cc1CNS(=O)(=O)C[C@H]1CC[C@H](N(C)c2ncnc3[nH]ccc23)CC1", "note": "[Example 52, N-[(1,3-dimethyl-1H-pyrazol-4-yl)methyl]-1-{trans-4-[methyl(7H-pyrrolo[2,3-d]pyrimidin-4-yl)amino]cyclohexyl}-methanesulfonamide]", "values": [{"measurement": "IC50", "setting": "JAK1", "result": 24, "unit": "nM"}, {"measurement": "IC50", "setting": "JAK2", "result": 107, "unit": "nM"}, {"measurement": "IC50", "setting": "JAK3", "result": 762, "unit": "nM"}]}
{"smiles": "CN(c1ncnc2[nH]ccc12)[C@H]1CC[C@@H](CS(=O)(=O)NCCc2ccccc2)CC1", "note": "[Example 53, 1-{cis-4-[methyl(7H-pyrrolo[2,3-d]pyrimidin-4-yl)amino]cyclohexyl}-N-(2-phenylethyl)-methanesulfonamide]", "values": [{"measurement": "IC50", "setting": "JAK1", "result": 11.5, "unit": "nM"}, {"measurement": "IC50", "setting": "JAK2", "result": 34.7, "unit": "nM"}, {"measurement": "IC50", "setting": "JAK3", "result": 119, "unit": "nM"}]}
{"smiles": "CN(c1ncnc2[nH]ccc12)[C@H]1CC[C@@H](CS(=O)(=O)NCc2ccccc2)CC1", "note": "[Example 54, N-benzyl-1-{cis-4-[methyl(7H-pyrrolo[2,3-d]pyrimidin-4-yl)amino]cyclohexyl}-methanesulfonamide]", "values": [{"measurement": "IC50", "setting": "JAK1", "result": 19.3, "unit": "nM"}, {"measurement": "IC50", "setting": "JAK2", "result": 54.2, "unit": "nM"}, {"measurement": "IC50", "setting": "JAK3", "result": 162, "unit": "nM"}]}
{"smiles": "CN(c1ncnc2[nH]ccc12)[C@H]1CC[C@@H](CS(=O)(=O)NCC2CC2)CC1", "note": "[Example 55, N-(cyclopropylmethyl)-1-{cis-4-[methyl(7H-pyrrolo[2,3-d]pyrimidin-4-yl)amino]cyclohexyl}-methanesulfonamide]", "values": [{"measurement": "IC50", "setting": "JAK1", "result": 11.4, "unit": "nM"}, {"measurement": "IC50", "setting": "JAK2", "result": 34.1, "unit": "nM"}, {"measurement": "IC50", "setting": "JAK3", "result": 201, "unit": "nM"}]}
{"smiles": "COc1ccc(CNS(=O)(=O)C[C@H]2CC[C@@H](N(C)c3ncnc4[nH]ccc34)CC2)cc1", "note": "[Example 56, N-(4-methoxybenzyl)-1-{cis-4-[methyl(7H-pyrrolo[2,3-d]pyrimidin-4-yl)amino]cyclohexyl}-methanesulfonamide]", "values": [{"measurement": "IC50", "setting": "JAK1", "result": 10.7, "unit": "nM"}, {"measurement": "IC50", "setting": "JAK2", "result": 36.6, "unit": "nM"}, {"measurement": "IC50", "setting": "JAK3", "result": 114, "unit": "nM"}]}
{"smiles": "CN(C)S(=O)(=O)C[C@H]1CC[C@H](N(C)c2ncnc3[nH]ccc23)CC1", "note": "[Example 57, N,N-dimethyl((1r,4r)-4-(methyl(7H-pyrrolo[2,3-d]pyrimidin-4-yl)amino)-cyclohexyl)-methanesulfonamide]", "values": [{"measurement": "IC50", "setting": "JAK1", "result": 7.33, "unit": "nM"}, {"measurement": "IC50", "setting": "JAK2", "result": 27.5, "unit": "nM"}, {"measurement": "IC50", "setting": "JAK3", "result": 174, "unit": "nM"}]}
